Data published in US10738028B2, “Spiro three-membered ring, spiro five-membered ring peptide deformylase inhibitor and use thereof in antibacteria and anti-tumor” (priority 2016, dated 2020).
In brackets after ≈: the same amount, converted by molar mass.

Key:
Assay type in all cases: cell-based
[1] = test system: Enterococcus faecalis (EFA); experiment: MIC, two-fold agar dilution (CLSI), clinical isolates
Outline: (§1)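 Test samples were assayed by the CLSI-recommended two-fold agar dilution method, and the minimum inhibitory concentration against each tested strain was determined.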

[2] = test system: Enterococcus faecium (EFM); experiment: as above
Outline: as §1

[3] = test system: Escherichia coli (including ESBLs, non-ESBLs); experiment: as above
Outline: as §1

[4] = test system: Moraxella catarrhalis (BCA); experiment: as above
Outline: as §1

[5] = test system: Streptococcus pneoumoniae (SPN); experiment: as above
Outline: as §1

[6] = test system: methicillin-resistant Staphylococcus aureus (MRSA); experiment: as above
Outline: as §1

[7] = test system: methicillin-resistant Staphylococcus epidermidis (MRSE); experiment: as above
Outline: as §1

[8] = test system: methicillin-sensitive Staphylococcus aureus (MSSA); experiment: as above
Outline: as §1

[9] = test system: methicillin-sensitive Staphylococcus epidermidis (MSSE); experiment: as above
Outline: as §1

[10] = test system: HCT-116 colorectal cancer cell line; experiment: CCK-8 proliferation inhibition; settings: Homo sapiens, HCT-116, 72 h, concentration of 30 μM; 72 hours; CCK-8; read-out: HCT116 inhibition rate/%
Outline: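 Cells seeded at 2000 cells/well, cultured overnight at 37 °C, 5% CO2, then exposed to compound (DMSO; control 1‰ DMSO) for 72 h in McCoy's 5A with 10% newborn bovine serum. Viability read with 1:10 diluted CCK-8.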

## O=CN(O)C[C@@H](CC1CCCC1)C(=O)N1CC2(CC2)C[C@H]1C(=O)Nc1cnccn1 [Example 26]
[1]; strain EFA 15-1
  MIC (anti-bacterial activity): 2 µg/mL (≈ 4.81 µM)
[1]; strain EFA 15-2
  MIC (anti-bacterial activity): 2 µg/mL (≈ 4.81 µM)
[1]; strain EFA 15-3
  MIC (anti-bacterial activity): 0.5 µg/mL (≈ 1.2 µM)
[1]; strain EFA 15-4
  MIC (anti-bacterial activity): 2 µg/mL (≈ 4.81 µM)
[1]; strain EFA 15-5
  MIC (anti-bacterial activity): 2 µg/mL (≈ 4.81 µM)
[1]; strain EFA 15-6
  MIC (anti-bacterial activity): 2 µg/mL (≈ 4.81 µM)
[1]; strain EFA 15-9
  MIC (anti-bacterial activity): 2 µg/mL (≈ 4.81 µM)
[2]; strain EFM 15-1
  MIC (anti-bacterial activity): 0.5 µg/mL (≈ 1.2 µM)
[2]; strain EFM 15-2
  MIC (anti-bacterial activity): 0.5 µg/mL (≈ 1.2 µM)
[2]; strain EFM 15-3
  MIC (anti-bacterial activity): 0.25 µg/mL (≈ 0.602 µM)
[2]; strain EFM 15-4
  MIC (anti-bacterial activity): 0.5 µg/mL (≈ 1.2 µM)
[2]; strain EFM 15-5
  MIC (anti-bacterial activity): 0.25 µg/mL (≈ 0.602 µM)
[2]; strain EFM 15-6
  MIC (anti-bacterial activity): 0.5 µg/mL (≈ 1.2 µM)
[3]; strain ECO+ 15-1
  MIC (anti-bacterial activity): 32 µg/mL (≈ 77 µM)
[3]; strain ECO+ 15-2
  MIC (anti-bacterial activity): 32 µg/mL (≈ 77 µM)
[3]; strain ECO+ 15-3
  MIC (anti-bacterial activity): 32 µg/mL (≈ 77 µM)
[3]; strain ECO+ 15-4
  MIC (anti-bacterial activity): 32 µg/mL (≈ 77 µM)
[3]; strain ECO− 15-1
  MIC (anti-bacterial activity): 32 µg/mL (≈ 77 µM)
[3]; strain ECO− 15-2
  MIC (anti-bacterial activity): 32 µg/mL (≈ 77 µM)
[3]; strain ECO− 15-3
  MIC (anti-bacterial activity): 32 µg/mL (≈ 77 µM)
[3]; strain ECO− 15-4
  MIC (anti-bacterial activity): 32 µg/mL (≈ 77 µM)
[4]; strain BCA 14-1
  MIC (anti-bacterial activity): 0.5 µg/mL (≈ 1.2 µM)
[4]; strain BCA 14-4
  MIC (anti-bacterial activity): 0.5 µg/mL (≈ 1.2 µM)
[4]; strain BCA 14-5
  MIC (anti-bacterial activity): 0.25 µg/mL (≈ 0.602 µM)
[4]; strain BCA 14-6
  MIC (anti-bacterial activity): 0.5 µg/mL (≈ 1.2 µM)
[4]; strain BCA 14-7
  MIC (anti-bacterial activity): 0.25 µg/mL (≈ 0.602 µM)
[4]; strain BCA 14-8
  MIC (anti-bacterial activity): 0.5 µg/mL (≈ 1.2 µM)
[4]; strain BCA 14-10
  MIC (anti-bacterial activity): 0.25 µg/mL (≈ 0.602 µM)
[5]; strain SPN 16-2
  MIC (anti-bacterial activity): 0.25 µg/mL (≈ 0.602 µM)
[5]; strain SPN 16-4
  MIC (anti-bacterial activity): 2 µg/mL (≈ 4.81 µM)
[6]; strain MRSA 15-1
  MIC (anti-bacterial activity): 0.25 µg/mL (≈ 0.602 µM)
[6]; strain MRSA 15-2
  MIC (anti-bacterial activity): 0.25 µg/mL (≈ 0.602 µM)
[6]; strain MRSA 15-3
  MIC (anti-bacterial activity): 0.25 µg/mL (≈ 0.602 µM)
[6]; strain MRSA 15-4
  MIC (anti-bacterial activity): 0.25 µg/mL (≈ 0.602 µM)
[7]; strain MRSE 15-1
  MIC (anti-bacterial activity): 0.125 µg/mL (≈ 0.301 µM)
[7]; strain MRSE 15-2
  MIC (anti-bacterial activity): 0.5 µg/mL (≈ 1.2 µM)
[7]; strain MRSE 15-3
  MIC (anti-bacterial activity): 0.5 µg/mL (≈ 1.2 µM)
[7]; strain MRSE 15-7
  MIC (anti-bacterial activity): 0.5 µg/mL (≈ 1.2 µM)
[8]; strain MSSA 15-3
  MIC (anti-bacterial activity): 0.25 µg/mL (≈ 0.602 µM)
[8]; strain MSSA 15-4
  MIC (anti-bacterial activity): 0.25 µg/mL (≈ 0.602 µM)
[8]; strain MSSA 15-5
  MIC (anti-bacterial activity): 0.25 µg/mL (≈ 0.602 µM)
[8]; strain MSSA 15-6
  MIC (anti-bacterial activity): 0.25 µg/mL (≈ 0.602 µM)
[9]; strain MSSE 15-3
  MIC (anti-bacterial activity): 0.125 µg/mL (≈ 0.301 µM)
[9]; strain MSSE 15-4
  MIC (anti-bacterial activity): 0.5 µg/mL (≈ 1.2 µM)
[9]; strain MSSE 15-5
  MIC (anti-bacterial activity): 0.5 µg/mL (≈ 1.2 µM)
[9]; strain MSSE 15-6
  MIC (anti-bacterial activity): 0.5 µg/mL (≈ 1.2 µM)
[10]
  inhibition at 30 µM: 18%

## CCCC[C@H](CN(O)C=O)C(=O)N1CC2(CC2)C[C@H]1C(=O)Nc1ccno1 [Example 17]
[1]; strain EFA 15-1
  MIC (anti-bacterial activity): 8 µg/mL (≈ 21.1 µM)
[1]; strain EFA 15-2
  MIC (anti-bacterial activity): 8 µg/mL (≈ 21.1 µM)
[1]; strain EFA 15-3
  MIC (anti-bacterial activity): 2 µg/mL (≈ 5.29 µM)
[1]; strain EFA 15-4
  MIC (anti-bacterial activity): 8 µg/mL (≈ 21.1 µM)
[1]; strain EFA 15-5
  MIC (anti-bacterial activity): 8 µg/mL (≈ 21.1 µM)
[1]; strain EFA 15-6
  MIC (anti-bacterial activity): 8 µg/mL (≈ 21.1 µM)
[1]; strain EFA 15-9
  MIC (anti-bacterial activity): 8 µg/mL (≈ 21.1 µM)
[2]; strain EFM 15-1
  MIC (anti-bacterial activity): 1 µg/mL (≈ 2.64 µM)
[2]; strain EFM 15-2
  MIC (anti-bacterial activity): 2 µg/mL (≈ 5.29 µM)
[2]; strain EFM 15-3
  MIC (anti-bacterial activity): 0.5 µg/mL (≈ 1.32 µM)
[2]; strain EFM 15-4
  MIC (anti-bacterial activity): 2 µg/mL (≈ 5.29 µM)
[2]; strain EFM 15-5
  MIC (anti-bacterial activity): 1 µg/mL (≈ 2.64 µM)
[2]; strain EFM 15-6
  MIC (anti-bacterial activity): 2 µg/mL (≈ 5.29 µM)
[3]; strain ECO+ 15-1
  MIC (anti-bacterial activity): 32 µg/mL (≈ 84.6 µM)
[3]; strain ECO+ 15-2
  MIC (anti-bacterial activity): 32 µg/mL (≈ 84.6 µM)
[3]; strain ECO+ 15-3
  MIC (anti-bacterial activity): > 32 µg/mL
[3]; strain ECO+ 15-4
  MIC (anti-bacterial activity): > 32 µg/mL
[3]; strain ECO− 15-1
  MIC (anti-bacterial activity): 16 µg/mL (≈ 42.3 µM)
[3]; strain ECO− 15-2
  MIC (anti-bacterial activity): 32 µg/mL (≈ 84.6 µM)
[3]; strain ECO− 15-3
  MIC (anti-bacterial activity): > 32 µg/mL
[3]; strain ECO− 15-4
  MIC (anti-bacterial activity): 32 µg/mL (≈ 84.6 µM)
[4]; strain BCA 14-1
  MIC (anti-bacterial activity): 4 µg/mL (≈ 10.6 µM)
[4]; strain BCA 14-4
  MIC (anti-bacterial activity): 2 µg/mL (≈ 5.29 µM)
[4]; strain BCA 14-5
  MIC (anti-bacterial activity): 1 µg/mL (≈ 2.64 µM)
[4]; strain BCA 14-6
  MIC (anti-bacterial activity): 2 µg/mL (≈ 5.29 µM)
[4]; strain BCA 14-7
  MIC (anti-bacterial activity): 1 µg/mL (≈ 2.64 µM)
[4]; strain BCA 14-8
  MIC (anti-bacterial activity): 2 µg/mL (≈ 5.29 µM)
[4]; strain BCA 14-10
  MIC (anti-bacterial activity): 1 µg/mL (≈ 2.64 µM)
[5]; strain SPN 16-2
  MIC (anti-bacterial activity): 8 µg/mL (≈ 21.1 µM)
[5]; strain SPN 16-4
  MIC (anti-bacterial activity): 1 µg/mL (≈ 2.64 µM)
[6]; strain MRSA 15-1
  MIC (anti-bacterial activity): 1 µg/mL (≈ 2.64 µM)
[6]; strain MRSA 15-2
  MIC (anti-bacterial activity): 1 µg/mL (≈ 2.64 µM)
[6]; strain MRSA 15-3
  MIC (anti-bacterial activity): 1 µg/mL (≈ 2.64 µM)
[6]; strain MRSA 15-4
  MIC (anti-bacterial activity): 1 µg/mL (≈ 2.64 µM)
[7]; strain MRSE 15-1
  MIC (anti-bacterial activity): 0.25 µg/mL (≈ 0.661 µM)
[7]; strain MRSE 15-2
  MIC (anti-bacterial activity): 0.5 µg/mL (≈ 1.32 µM)
[7]; strain MRSE 15-3
  MIC (anti-bacterial activity): 0.5 µg/mL (≈ 1.32 µM)
[7]; strain MRSE 15-7
  MIC (anti-bacterial activity): 1 µg/mL (≈ 2.64 µM)
[8]; strain MSSA 15-3
  MIC (anti-bacterial activity): 1 µg/mL (≈ 2.64 µM)
[8]; strain MSSA 15-4
  MIC (anti-bacterial activity): 1 µg/mL (≈ 2.64 µM)
[8]; strain MSSA 15-5
  MIC (anti-bacterial activity): 0.25 µg/mL (≈ 0.661 µM)
[8]; strain MSSA 15-6
  MIC (anti-bacterial activity): 1 µg/mL (≈ 2.64 µM)
[9]; strain MSSE 15-3
  MIC (anti-bacterial activity): 1 µg/mL (≈ 2.64 µM)
[9]; strain MSSE 15-4
  MIC (anti-bacterial activity): 0.5 µg/mL (≈ 1.32 µM)
[9]; strain MSSE 15-5
  MIC (anti-bacterial activity): 0.5 µg/mL (≈ 1.32 µM)
[9]; strain MSSE 15-6
  MIC (anti-bacterial activity): 0.25 µg/mL (≈ 0.661 µM)
[10]
  inhibition at 30 µM: 13%
